Assay results: patent US20070276017A1, “Thiadiazoline Derivative” (priority 2003, published 2007)

Tests used:
[1] = molecular target: T1, human Eg5 motor domain (Homo sapiens, UniProt P52732); experiment: Eg5 enzyme inhibition test (2): ATPase activity of recombinant human Eg5 motor domain; format: biochemical; conditions: tubulin/paclitaxel, 30° C. for 30 minutes, concentration-dependent inhibition
T1 construct: A plasmid expressing the motor domain of human Eg5 was constructed; made in house; host or cells: Escherichia coli BL21 (DE3)
T1 sequence (P52732 18-359 limits assumed): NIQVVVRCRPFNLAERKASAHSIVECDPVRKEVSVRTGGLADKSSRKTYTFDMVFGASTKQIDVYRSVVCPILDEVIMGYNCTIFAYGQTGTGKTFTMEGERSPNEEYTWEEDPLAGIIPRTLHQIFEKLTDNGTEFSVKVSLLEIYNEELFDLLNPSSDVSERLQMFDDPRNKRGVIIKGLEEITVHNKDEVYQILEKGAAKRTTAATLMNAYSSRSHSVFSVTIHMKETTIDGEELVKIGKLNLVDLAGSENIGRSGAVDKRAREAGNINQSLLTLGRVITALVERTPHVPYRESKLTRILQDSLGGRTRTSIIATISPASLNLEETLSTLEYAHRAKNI
Description: A recombinant human Eg5 motor domain protein was prepared by referring to the literature [Biochemistry, Vol. 35, p. 2365 (1996)]. A plasmid expressing the motor domain of human Eg5 was constructed, and transformed into Escherichia coli BL21 (DE3). The transformant was cultured at 25° C., and when the OD600 reached 0.74, isopropyl-β-D-thiogalactoside was added at a final concentration of 0.5 mmol/L. The transformant was further cultured for 4 hours, and then the culture medium was centrifuged to collect the cells. The cells were suspended in a buffer and ultrasonicated, and then the sonicated solution was centrifuged to recover the supernatant. The supernatant was purified by cation exchange column chromatography to obtain a partially purified sample. Furthermore, the partially purified sample was purified by gel filtration column chromatography to obtain a finally purified sample.
Measurement of the ATPase activity of Eg5 was carried out by referring to the literatures [EMBO Journal, Vol. 13, p. 751 (1994); Proc. Natl. Acad. Sci. USA, Vol. 89, p. 4884 (1992)]. The following two kinds of solutions were prepared: Solution A consisting of 25 mmol/L piperazine N,N′-bis(ethanesulfonate) (PIPES)/KOH (pH 6.8), 1 mmol/L ethylene glycol-bis(2-aminoethyl ether)tetraacetic acid (EGTA), 2 mmol/L MgCl2, 1 mmol/L dithiothreitol (DTT), 5 μmol/L paclitaxel, 167 μg/mL bovine serum albumin (BSA), 41.7 μg/mL tubulin (Cytoskeleton, Catalog No. TL238), 333 μmol/L MESG substrate (2-amino-6-mercapto-7-methylpurine riboside) (Molecular Probes, Catalog Number E-6646), 1.67 U/mL purine nucleoside phosphorylase (Molecular Probe, Catalog No. E-6646) and 1.33 μg/mL of the human Eg5 motor domain purified sample, and Solution B consisting of 25 mmol/L piperazine N,N′-bis(ethanesulfonate) (PIPES)/KOH (pH 6.8), 1 mmol/L ethylene glycol-bis(2-aminoethyl ether)tetraacetic acid (EGTA), 2 mmol/L MgCl2, 1 mmol/L dithiothreitol (DTT), 5 μmol/L paclitaxel and 2.5 mmol/L ATP. Solution A was dispensed into each well of a 96-well plate as 45 μL portions. Solution B was used to serially dilute a test compound. The diluted test compound solutions in a volume of 30 μL were mixed with Solution A added beforehand in each well of the 96-well plate to start the enzymatic reaction. The enzymatic reaction was performed at 30° C. for 30 minutes. Absorbance at 360 nm, which serves as an index of the ATPase activity, was measured using a plate reader (Molecular Device, SpectraMax 340PC^384). The absorbance observed in the presence of Eg5 and absence of the test compound was defined 100%, and the absorbance observed in the absence of both Eg5 and the test compound was defined 0%. The relative activity was calculated to calculate IC50 value.

[2] = test system: HCT 116 human colon carcinoma cells; experiment: Antiproliferative activity against HCT 116 human colon carcinoma cells (XTT, 72 hours); format: cell-based; conditions: read-out: GI50, concentration of compound which induces 50% inhibition of cell proliferation, HCT 116 cells, 72 hours incubation
Description: HCT 116 cells (ATCC No.: CCL-247) were placed on a 96-well microtiter plate (Nunc, 167008) at a density of 1×10^3 cells/well. The plate was incubated in a 5% CO2 incubator at 37° C. for 24 hours, and then to the plate was added test compounds diluted stepwise to […] in total, and the plate was further incubated in a 5% CO2 incubator at 37° C. for 72 hours. To the culture medium, the XTT (sodium 3′-[1-(phenylaminocarbonyl)-3,4-tetrazolium]-bis(4-methoxy-6-nitro)benzenesulfonic acid hydrate) labeling mixture (Roche Diagnostics, 1465015) was dispensed in […] portions, then the plate was incubated in a 5% CO2 incubator at 37° C. for 1 hour, and the absorbance was measured at 490 nm and 655 nm with a microplate spectrophotometer (Bio-Rad, Model 550).
GI50 calculation method: The value (difference in absorbance) was calculated by subtracting the absorbance at 655 nm from the absorbance at 490 nm of each well.

Row | SMILES | IC50 [1] | GI50 [2]
1 | CCOCCNCCC1(c2ccccc2)SC(NC(=O)C(C)(C)C)=NN1C(=O)C(C)(C)C (stereo not drawn) [Compound 3] | ≤ 5 µM | –
2 | CC(C)(C)C(=O)NC1=NN(C(=O)C(C)(C)C)C(CCNCCCN2CCCC2=O)(c2ccccc2)S1 (stereo not drawn) [Compound 9] | ≤ 5 µM | 0.065 µM
3 | CNCCCC1(c2ccccc2)SC(NC(=O)C(C)(C)C)=NN1C(=O)C(C)(C)C (stereo not drawn) [Compound 23] | ≤ 5 µM | –
4 | CC(C)(C)C(=O)NC1=NN(C(=O)C(C)(C)C)C(CCCNCCCO)(c2ccccc2)S1 (stereo not drawn) [Compound 29] | ≤ 5 µM | –
5 | CC(C)(C)C(=O)NC1=NN(C(=O)C(C)(C)C)C(CCNC(=O)C2CCCN2)(c2ccccc2)S1 (stereo not drawn) [Compound 59] | ≤ 5 µM | < 10 µM
6 | CC(C)(C)C(=O)NC1=NN(C(=O)C(C)(C)C)C(CCCNC(=O)CN)(c2ccccc2)S1 (stereo not drawn) [Compound 73] | ≤ 5 µM | –
7 | CC(C)(C)C(=O)NC1=NN(C(=O)C(C)(C)C)C(CCCNC(CO)CO)(c2ccccc2)S1 (stereo not drawn) [Compound 76] | ≤ 5 µM | < 10 µM
8 | CC(C)(C)C(=O)N1N=C(N2CCCCC2=O)SC1(CCCN)c1ccccc1 (stereo not drawn) [Compound 83] | ≤ 5 µM | –
9 | CN(C)CCS(=O)(=O)NCCCC1(c2ccccc2)SC(N2CCCCC2=O)=NN1C(=O)C(C)(C)C (stereo not drawn) [Compound 85] | ≤ 5 µM | < 10 µM
10 | CC(=O)N1N=C(NC(=O)C(C)(C)C)SC1(CCCN)c1ccccc1 (stereo not drawn) [Compound 88] | ≤ 5 µM | –
11 | CC(=O)N1N=C(N2CCCC2=O)SC1(CCCN)c1ccccc1 (stereo not drawn) [Compound 90] | ≤ 5 µM | –
12 | COC(=O)N1CCN(CCCC2(c3ccccc3)SC(NC(=O)C(C)(C)C)=NN2C(=O)C(C)(C)C)CC1 (stereo not drawn) [Compound 122] | ≤ 5 µM | < 10 µM
13 | CC(=O)N1N=C(N2CCCCC2=O)SC1(CCNC(=O)CCCN(C)C)c1ccccc1 (stereo not drawn) [Compound 144] | ≤ 5 µM | < 10 µM
14 | CC(C)(C)C(=O)NC1=NN(C(=O)C(C)(C)C)C(COC(=O)NCCN2CCCC2)(c2ccccc2)S1 (stereo not drawn) [Compound 181] | ≤ 5 µM | < 10 µM
